PubChem BioAssay AID330 (DTP/NCI, 2004)
Where “and” joins values, the source holds several entries; their conditions need not be identical. Equal entries are not always repeated. Toxic doses and inconclusive results are not listed.

Test system: P388 leukemia ip, CD2F1 mice, survival T/C
Test: NCI In Vivo Anticancer Drug Screen. Data for tumor model P388 Leukemia (intraperitoneal) in CD2F1 (CDF1) mice
Conditions: endpoint: median survival time, higher = longer survival
Summary of the method: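 Mice carrying the transplanted tumor received test compound or vehicle. Survival was recorded in each group, and the value is the treated-group measurement divided by that of the vehicle-treated control group.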

[1] = dose: 25.0 mg/kg/injection, schedule: Q01DX009 (ip), vehicle: Klucel (hydroxypropylcellulose) (HPC)
[2] = dose: 6.25 mg/kg/injection, schedule: Q04DX003 (ip), vehicle: saline
[3] = dose: 50.0 mg/kg/injection, schedule: Q01DX005 (ip), vehicle: saline with Tween-80
[4] = dose: 100.0 mg/kg/injection, schedule: Q01DX005 (ip), vehicle: saline with Tween-80
[5] = dose: 200.0 mg/kg/injection, schedule: Q01DX005 (ip), vehicle: saline with Tween-80
[6] = dose: 50.0 mg/kg/injection, schedule: Q01DX009 (ip), vehicle: Klucel (hydroxypropylcellulose) (HPC)
[7] = dose: 100.0 mg/kg/injection, schedule: Q01DX009 (ip), vehicle: Klucel (hydroxypropylcellulose) (HPC)
[8] = dose: 200.0 mg/kg/injection, schedule: Q01DX009 (ip), vehicle: Klucel (hydroxypropylcellulose) (HPC)

With `Cc1cc(C)cc(OC(=O)/C=C/C(=O)Oc2cc(C)cc(C)c2)c1` the T/C (dose: 100.0 mg/kg/injection, schedule: Q01DX009 (ip), vehicle: saline with Tween-80) was 90 % of control, the T/C (dose: 200.0 mg/kg/injection, schedule: Q01DX009 (ip), vehicle: saline with Tween-80) was 90 % of control and the T/C (dose: 400.0 mg/kg/injection, schedule: Q01DX009 (ip), vehicle: saline with Tween-80) was 90 % of control.
`CC1=C2C(=CO[C@H](C)[C@H]2C)C(=O)C(C(=O)O)=C1O` was tested, and the T/C (dose: 6.25 mg/kg/injection, schedule: Q01DX009 (ip), vehicle: Klucel (hydroxypropylcellulose) (HPC)) was 112 % of control, the T/C (dose: 6.25 mg/kg/injection, schedule: Q01DX009 (ip), vehicle: saline) was 117 % of control and the T/C (dose: 12.5 mg/kg/injection, schedule: Q01DX009 (ip), vehicle: Klucel (hydroxypropylcellulose) (HPC)) was 120 % of control. For the same molecule, the T/C (dose: 12.5 mg/kg/injection, schedule: Q01DX009 (ip), vehicle: saline) was 115 % of control and the T/C [1] was 124 % of control.
For `COC(=O)C#CBr`, the T/C (dose: 3.13 mg/kg/injection, schedule: Q04DX003 (ip), vehicle: saline) was 100 % of control and the T/C [2] was 100 % of control.
For `COc1ccc(/C=N\N=C(/[O-])c2ccccc2O)cc1.COc1ccc(/C=N\N=C(/[O-])c2ccccc2O)cc1.[Mn+2].[OH3+].[OH3+]`, the T/C (dose: 50.0 mg/kg/injection, schedule: Q04DX002 (ip), vehicle: saline with Tween-80) was 107 % of control, the T/C (dose: 100.0 mg/kg/injection, schedule: Q04DX002 (ip), vehicle: saline with Tween-80) was 108 % of control and the T/C (dose: 200.0 mg/kg/injection, schedule: Q04DX002 (ip), vehicle: saline with Tween-80) was 114 % of control.
In the case of `COC1=CC(=O)C(c2cc(OC(C)=O)c(OC)cc2OC(C)=O)=CC1=O`, the T/C (dose: 6.0 mg/kg/injection, schedule: Q01DX005 (ip), vehicle: saline + Tween-80 + alcohol) is reported as 108 % of control, the T/C (dose: 12.0 mg/kg/injection, schedule: Q01DX005 (ip), vehicle: saline + Tween-80 + alcohol) is reported as 100 % of control and the T/C (dose: 25.0 mg/kg/injection, schedule: Q01DX005 (ip), vehicle: saline + Tween-80 + alcohol) is reported as 105 % of control.
`Cc1cnc(C)n2cnnc12` was tested, and the T/C (dose: 100.0 mg/kg/injection, schedule: Q04DX003 (ip), vehicle: saline) was 93 % of control, the T/C (dose: 200.0 mg/kg/injection, schedule: Q04DX003 (ip), vehicle: saline) was 95 % of control and the T/C (dose: 400.0 mg/kg/injection, schedule: Q04DX003 (ip), vehicle: saline) was 98 % of control.
In the case of `COC(=O)[C@@]12OC[C@]34[C@H]([C@@H](O)[C@@H]1O)[C@@]1(C)CC(=O)C(O)=C(C)[C@@H]1C[C@H]3OC(=O)[C@H](OC(=O)CC(C)C)[C@@H]24`, the T/C (dose: 0.12 mg/kg/injection, schedule: Q01DX009 (ip), vehicle: saline + alcohol) is reported as 110 % of control and the T/C (dose: 0.25 mg/kg/injection, schedule: Q01DX009 (ip), vehicle: saline + alcohol) is reported as 118 % of control.
`CSCCCCCCCCCCSC` was tested, and the T/C (dose: 50.0 mg/kg/injection, schedule: Q01DX009 (ip), vehicle: saline) was 99 % of control, the T/C (dose: 100.0 mg/kg/injection, schedule: Q01DX009 (ip), vehicle: saline) was 100 % of control and the T/C (dose: 200.0 mg/kg/injection, schedule: Q01DX009 (ip), vehicle: saline) was 99 % of control.
`CC(=O)OC1COC2OC1C(OC(C)=O)C2OC(C)=O` (stereo not drawn) was tested, and the T/C [3] was 101 % of control, the T/C [4] was 104 % of control and the T/C [5] was 101 % of control.
`CC(=O)OC1C/C(C)=C/CCC(C)/C=C/C2(C)CCC(C(C)(C)O)C12` (stereo not drawn) was tested, and the T/C (dose: 8.0 mg/kg/injection, schedule: Q01DX009 (ip), vehicle: Klucel (hydroxypropylcellulose) (HPC)) was 105 % of control, the T/C (dose: 16.0 mg/kg/injection, schedule: Q01DX009 (ip), vehicle: Klucel (hydroxypropylcellulose) (HPC)) was 106 % of control and the T/C (dose: 32.0 mg/kg/injection, schedule: Q01DX009 (ip), vehicle: Klucel (hydroxypropylcellulose) (HPC)) was 106 % of control. For the same molecule, the T/C (dose: 64.0 mg/kg/injection, schedule: Q01DX009 (ip), vehicle: Klucel (hydroxypropylcellulose) (HPC)) was 106 % of control.
`c1cc(Cc2ccsc2)cs1` was tested, and the T/C (dose: 60.0 mg/kg/injection, schedule: Q01DX005 (ip), vehicle: saline with Tween-80) was 104 % of control, the T/C (dose: 120.0 mg/kg/injection, schedule: Q01DX005 (ip), vehicle: saline with Tween-80) was 104 % of control and the T/C (dose: 240.0 mg/kg/injection, schedule: Q01DX005 (ip), vehicle: saline with Tween-80) was 106 % of control.
For `N=C(N)c1ccc2cc(C(=N)N)[nH]c2c1`, the T/C [2] was 100 % of control, the T/C (dose: 12.5 mg/kg/injection, schedule: Q04DX003 (ip), vehicle: saline) was 100 % of control and the T/C (dose: 25.0 mg/kg/injection, schedule: Q04DX003 (ip), vehicle: saline) was 107 % of control.
`CCN(CC)CCOC(=O)Cc1cccc2c(=O)cc(-c3ccc(OC)cc3)oc12` was tested, and the T/C (dose: 12.5 mg/kg/injection, schedule: Q01DX005 (ip), vehicle: Klucel (hydroxypropylcellulose) (HPC)) was 113 % of control, the T/C (dose: 25.0 mg/kg/injection, schedule: Q01DX005 (ip), vehicle: Klucel (hydroxypropylcellulose) (HPC)) was 113 % of control and the T/C (dose: 50.0 mg/kg/injection, schedule: Q01DX005 (ip), vehicle: Klucel (hydroxypropylcellulose) (HPC)) was 98 % of control. The T/C (dose: 100.0 mg/kg/injection, schedule: Q01DX005 (ip), vehicle: Klucel (hydroxypropylcellulose) (HPC)) was 121 % of control.
For `O=C(O)C(O)C(F)(F)C(F)(F)C(F)(F)C(F)(F)C(O)C(=O)O` (stereo not drawn), the T/C (dose: 60.0 mg/kg/injection, schedule: Q01DX005 (ip), vehicle: saline) was 93 % of control, the T/C (dose: 120.0 mg/kg/injection, schedule: Q01DX005 (ip), vehicle: saline) was 93 % of control and the T/C (dose: 240.0 mg/kg/injection, schedule: Q01DX005 (ip), vehicle: saline) was 86 % of control.
With `CC1SC(N)=NN=C1c1c(O)c2ccccc2oc1=O` (stereo not drawn) the T/C (dose: 100.0 mg/kg/injection, schedule: Q04DX002 (ip), vehicle: Klucel (hydroxypropylcellulose) (HPC)) was 103 % of control, the T/C (dose: 200.0 mg/kg/injection, schedule: Q04DX002 (ip), vehicle: Klucel (hydroxypropylcellulose) (HPC)) was 98 % of control and the T/C (dose: 400.0 mg/kg/injection, schedule: Q04DX002 (ip), vehicle: Klucel (hydroxypropylcellulose) (HPC)) was 97 % of control.
`O=C(CNC(=O)Nc1ccc(Cl)c(Cl)c1)N/N=C/C=C/c1ccccc1` was tested, and the T/C (dose: 15.0 mg/kg/injection, schedule: Q01DX005 (ip), vehicle: saline with Tween-80) was 96 % of control and the T/C (dose: 30.0 mg/kg/injection, schedule: Q01DX005 (ip), vehicle: saline with Tween-80) was 87 % of control.
With `COc1ccc2ccccc2c1/C=[N+](/[O-])c1ccccc1` the T/C (dose: 60.0 mg/kg/injection, schedule: Q01DX005 (ip), vehicle: Klucel (hydroxypropylcellulose) (HPC)) was 109 % of control, the T/C (dose: 120.0 mg/kg/injection, schedule: Q01DX005 (ip), vehicle: Klucel (hydroxypropylcellulose) (HPC)) was 110 % of control and the T/C (dose: 240.0 mg/kg/injection, schedule: Q01DX005 (ip), vehicle: Klucel (hydroxypropylcellulose) (HPC)) was 112 % of control.
`CC(C)(C)C(O)c1cccnc1` (stereo not drawn) was tested, and the T/C (dose: 100.0 mg/kg/injection, schedule: Q04DX003 (ip), vehicle: saline with Tween-80) was 110 % of control and the T/C (dose: 200.0 mg/kg/injection, schedule: Q04DX003 (ip), vehicle: saline with Tween-80) was 101 % of control.
With `O=C1NC(=O)N(c2ccc([N+](=O)[O-])cc2)C1=O` the T/C [6] was 86 % of control, the T/C [7] was 89 % of control and the T/C [8] was 86 % of control (2×) and 93 % of control.
For `CCN(CCNc1ccc(CO)c2sc3ccccc3c(=O)c12)CC(C)(C)O`, the T/C (dose: 265.0 mg/kg/injection, schedule: Q04DX003 (ip), vehicle: saline with Tween-80) was 123 % of control, the T/C (dose: 400.0 mg/kg/injection, schedule: Q04DX003 (ip), vehicle: saline with Tween-80) was 159 % of control and the T/C (dose: 600.0 mg/kg/injection, schedule: Q04DX003 (ip), vehicle: saline with Tween-80) was 185 % of control.
`O=C1C(Sc2ccccc2)C(c2ccccc2)C1Sc1ccccc1` (stereo not drawn) was tested, and the T/C [3] was 96 % of control, the T/C [4] was 105 % of control and the T/C [5] was 99 % of control.
For `Clc1ccc(C=Nc2ccc(N=Cc3ccc(Cl)cc3)cc2)cc1`, the T/C (dose: 100.0 mg/kg/injection, schedule: Q01DX001 (ip), vehicle: saline with Tween-80) was 90 % of control, the T/C (dose: 200.0 mg/kg/injection, schedule: Q01DX001 (ip), vehicle: saline with Tween-80) was 88 % of control and the T/C (dose: 400.0 mg/kg/injection, schedule: Q01DX001 (ip), vehicle: saline with Tween-80) was 87 % of control.
In the case of `O=C(CCn1c(CN2CCN(C/C=C/c3ccccc3)CC2)nc2ccccc21)c1ccccc1`, the T/C [6] is reported as 104 % of control, the T/C [7] is reported as 100 % of control and the T/C [8] is reported as 111 % of control.
For `Cc1nc(C)c(Cl)c(OS(=O)(=O)CCCCl)c1Cl`, the T/C [1] was 110 % of control (2×) and 92 % of control, the T/C (dose: 35.0 mg/kg/injection, schedule: Q01DX009 (ip), vehicle: Klucel (hydroxypropylcellulose) (HPC)) was 110 % of control and 95 % of control and the T/C [6] was 105 % of control and 120 % of control and 95 % of control. The T/C (dose: 75.0 mg/kg/injection, schedule: Q01DX009 (ip), vehicle: Klucel (hydroxypropylcellulose) (HPC)) was 94 % of control.
